Legend:
[1] = biological target: PcaR transcription factor (Pseudomonas putida, UniProt Q52154); details: for biosensor response (OD600 increase / tetracycline resistance) in words: plasmids S3/S2, 25 μg/ml tetracycline, 12 hours growth; for linear response range: plasmids S3/S2, E. coli K12, tetracycline medium, 12 hours, exogenously added dicarboxylic acid; for dynamic range (maximum difference in OD600 between fully induced samples and samples without dicarboxylic acid), ranking in words: plasmids S3/S2, compared among the four dicarboxylic acids
Sequence of PcaR transcription factor (Q52154 whole entry L6P/V7A/D9E/P10S/V11A/P15S/S20A/A21P/M23L/S96T/G197D/H210N/P212A): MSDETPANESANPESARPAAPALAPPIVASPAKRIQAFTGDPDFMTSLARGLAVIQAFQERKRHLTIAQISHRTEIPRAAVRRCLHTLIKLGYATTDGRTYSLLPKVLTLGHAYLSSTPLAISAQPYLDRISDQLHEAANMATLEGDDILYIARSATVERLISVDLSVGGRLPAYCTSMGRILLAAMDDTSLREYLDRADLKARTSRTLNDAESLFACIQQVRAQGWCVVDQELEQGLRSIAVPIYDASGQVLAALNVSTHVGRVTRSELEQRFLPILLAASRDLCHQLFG
Experimental: The X-axis is the concentration of exogenous dicarboxylic acid supplemented to the growth medium; the Y-axis is the cell culture density (OD600) after 12 hours growth in medium supplemented with 25 μg/ml tetracycline. E. coli strain “PcaR (+)” comprises plasmids S3/S2 and produces the tetracycline resistance protein upon exogenous addition of dicarboxylic acids. E. coli strain “PcaR (−)” comprises plasmids S1/S2 and produces a negative control protein, PcaI, upon exogenous addition of the indicated dicarboxylic acids.
Three plasmids were used to characterize biosensor response to exogenously added butanedioic acid, pentanedioic acid, hexanedioic acid and heptanedioic acid. The constructed plasmids employ the beta-keto hexanedioic acid and hexanedioic responsive transcription factor, PcaR, and the PcaR-responsive promoters, PPcaR (SEQ ID NO: 16) and PPcaIJ (SEQ ID NO:17), from Pseudomonas putida. Plasmid 51 harbors the P. putida gene pcaI under transcriptional control of it native PPcaIJ promoter on an E. coli vector backbone with ampicillin resistance marker and ColE1 origin of replication. Plasmid S3 harbors the tetA tetracycline resistance gene under control of the PcaIJ promoter on an E. coli vector backbone with ampicillin resistance marker and ColE1 origin of replication. Plasmid S2 harbors the pcaR transcription factor gene under control of its native PPcaR promoter on an E. coli vector backbone comprising a chloramphenicol resistance marker and pSC101 origin of replication.
E. coli strain K12 was co-transformed with either plasmids S1/S2 or S3/S2 and individual colonies isolated from LB agar plates (Cb^50, Cm^50). Colonies were grown in 25 ml LB broth (Cb^50, Cm^50) until reaching an optical density at 600 nm (OD600) of approximately 0.50, at which point cell stocks were prepared and stored at −80° C.; cell stocks were comprised of 0.5 ml cell culture and 0.5 ml of a 50% v/v glycerol solution.
Biosensor experiments were performed with butanedioic acid, pentanedioic acid, hexanedioic acid, and heptanedioic acid. An aliquot of biosensor cell stock was thawed and used to inoculate 50 ml of LB medium (Cb^50, Cm^50) in a 250 ml, baffled Erlenmeyer flask. Cultures were incubated for 2 hours at 37° C.; subsequently, 0.6 ml biosensor culture was added to 48-well plates prepared with 2.3 ml LB medium (Cb^50, Cm^50) supplemented with tetracycline and dicarboxylic acid at the desired concentration (n=4). Plates were than grown at 30° C. on an orbital titer plate shaker (Lab Line Instruments). Following 12 hours incubation, 200 μl samples were taken for OD600 measurement (Tecan Ultra).

[2] = tested on: E. coli DcuS-DcuR two-component system; details: plasmid S4 (PDctA-tetA), E. coli K12, 25 μg/ml tetracycline, 12 hours, exogenously added acid
Experimental: This example describes a dicarboxylic acid-responsive two-component system of the invention comprised of the E. coli DcuS-DcuR proteins expressed in a wild type E. coli K12 host.
(§1) E. coli strain K12 was transformed with plasmids S4, S5, or S6 and individual colonies isolated from LB agar plates (Cb^50). Colonies were grown in 25 ml LB broth (Cb^50) until reaching an optical density at 600 nm (OD600) of approximately 0.50, at which point cell stocks were prepared and stored at −80° C.; cell stocks comprised 0.5 ml cell culture and 0.5 ml of 50% v/v glycerol in water.
(§2) Biosensor experiments were performed with butanedioic acid. An aliquot of biosensor cell stock was thawed and used to inoculate 50 ml of LB medium (Cb^50) in a 250 ml, baffled Erlenmeyer flask. […] Plates were grown at 30° C. on an orbital titer plate shaker (Lab Line Instruments). Following 12 hours incubation, 200 μl samples were taken for OD600 measurement (Tecan Ultra).

[3] = tested on: E. coli DcuS-DcuR two-component system; details: plasmids S5 (PDcuB#21) or S6 (PDcuB#22), 25 μg/ml tetracycline
Experimental: as §1, §2

SMILES | biosensor response (OD600 increase / tetracycline resistance) in words [1] | linear response range [1] | dynamic range (maximum difference in OD600 between fully induced samples and samples without dicarboxylic acid), ranking in words [1] | dynamic range of biosensor response [2] | growth of biosensor cultures versus acid concentration, in words [3]
O=C(O)CCCCCC(=O)O [heptanedioic acid] | dicarboxylic acid-dependent increases in tetracycline resistance | 0.5 to 6 mM | highest dynamic range |  | 
O=C(O)CCCCC(=O)O [hexanedioic acid] | dicarboxylic acid-dependent increases in tetracycline resistance | 0.25 to 6 mM | highest dynamic range |  | 
O=C(O)CCCC(=O)O [pentanedioic acid] | dicarboxylic acid-dependent increases in tetracycline resistance | 1 to 2.5 mM |  |  | 
O=C(O)CCC(=O)O [butanedioic acid] | dicarboxylic acid-dependent increases in tetracycline resistance | 1.5 to 4 mM |  | over 1.2 OD600 units | grew under all butanedioic acid concentrations tested
